Measured values as given in article PMC8129133, “Polymer-free corticosteroid dimer implants for controlled and sustained drug delivery” (Nature Communications, 2021).
In brackets after ≈: the same amount, converted by molar mass. Several values for one entry are separate records, joined by “and”; a condition that tells them apart may be missing. Equal values may be shown once.

Key:
[1] = Maximum soluble concentration in culture medium (HPLC); assay type: physicochemical; details: plasma or biological fluid, kinetic from ethanol stock, fibroblast growth medium, 1% ethanol, sterile filtered
Procedure: Human dermal fibroblasts were chosen for general cytotoxicity assessment as they are commonly employed in standard cytotoxicity testing outlined in ISO10993 guidelines. […] The resulting solution was sterile filtered (Pall) to remove any non-soluble components and the concentration of Dex-TEG-Dex was confirmed by HPLC (6.7 µg/ml). The […] control was regular culture medium with 1% ethanol, while the negative control was culture medium containing 5% DMSO. Following 24 h exposure to the different test groups, a WST-1 assay was performed. Briefly, WST-1 reagent (Roche) was mixed with growth medium at a 1:10 dilution, added to test groups, and incubated at 37 °C and 5% CO2 for 1 h. Supernatant was transferred to a new well and absorbance was measured at 450 nm. After 24 h exposure to test groups, samples were also visualized following Diff-Quik staining following the manufacturer’s recommended protocol (Siemens). Samples were imaged with a Leica DMIL microscope equipped with a Canon PowerShot S70 camera with ZoomBrowser Ex 5.0 software (Canon, version 5.0.0.142).

[2] = rabbit, in vivo
Procedure: Analysis of samples was conducted using a SCIEX API 5000 mass spectrometer (Applied Biosystems/MDS Sciex), Shimadzu LC-20ADXR HPLC pumps, Shimadzu SCL-10A controller, and HTS-PAL autoinjector (CTC Analytics). Chromatography was performed using a Waters X-Bridge C-18 (3.5 µm; 100 × 2.1 mm) column equipped with a Phenomenex KrudKatcher ULTRA HPLC In-Line Filter (Part AF0-8497). The column was held at a temperature of 40 °C, while the autosampler compartment was maintained at 4 °C. Mobile phases consisted of: (A) 95:5 H2O:MeOH with 2 mM Ammonium Acetate (NH4OAc) and (B) 85:10:5 MeOH:H2O:MeCN with 2 mM NH4OAc. A gradient elution profile was employed, following the trend of: (0 min 30% B), (0.50 min 30% B), (2.50 min 65% B), (2.51 min 100% B), (4.50 min 100% B), (4.51 min 30% B), (6.50 min 30% B). Flow was constant at 0.6 mL min^-1 with an injection volume of 10 µL. For MS parameters, the system was operated in positive ion mode with a TurboIonSpray probe monitoring transitions (±0.2 AMU) of m/z 393.2 → 373.2 for Dex and 397.3 → 377.2 for the Dex-d4 deuterated internal standard. Analyst Version 1.4.2 (Applied Biosystems-MDS Sciex) was used for instrument control, data acquisition, and peak integrations, while calculations including peak area ratios, standard curve regressions, sample concentration values, and descriptive statistics were performed with the assistance of the ALIS2004 validated LIMS.
Dex and internal standard (Dex-d4) were extracted from vitreous humor on ice using protein precipitation. Samples were initially centrifuged at approximately 1500 rcf for 5 min to remove any interfering particulates. Stepwise, the protocol for extraction from vitreous humor was to (1) pipette 50 µL of vitreous humor into an extraction tube; (2) add 13 µL H2O and vortex to mix; (3) add 25 µL internal standard spiking solution (100 ng/mL Dex-d4 in a 1:1 solvent of MeOH:H2O); (4) add 25 µL of make-up reagent (1:1 mixture of MeOH:H2O); (5) vortex mix for 5-10 s at a speed setting of 4 or 5; (6) centrifuge at ~60 rcf for 2 min; (7) add 300 µL of 9:1 MeOH:5 mM NH4OAc at pH 7 to precipitate proteins; (8) cap and vortex mix at full speed for 2 min; (9) Centrifuge at approximately 2700 rcf for 5 min; (10) transfer 300 µL of supernatant to a separate tube; (11) vortex the collected supernatant for 30 s at a low to moderate speed; (12) centrifuge at ~1500 rcf for 5 min; (13) store prepared extract at 4 °C until analysis by LC-MS/MS.
Pharmacokinetics. […] Animals were anesthetized with ketamine (up to ~50 mg/kg) and xylazine (up to ~10 mg/kg). Eyes were surgically prepared before intravitreal procedures with 5% betadine and topical anesthetic eye drops (proparacaine hydrochloride, 0.5%). Prior to test article administration, pupils were dilated with topical application of one drop each of 10% phenylephrine and 1% tropicamide on each cornea.
Implants (30 G × 6 mm Dex-TEG-Dex extruded rods, Ozurdex®) were injected (30 G needle for Dex-TEG-Dex, 22 G needle for Ozurdex®) intravitreally into the eyes of New Zealand White rabbits (female, 1.5–2.5 kg) with terminal timepoints of 1 and 2 weeks and 1, 2, 3, 6, 9, 12, and 14 months. Ocular tissues and plasma were collected at each timepoint and analyzed for Dex by LC/MS/MS. Whole globe eyes were collected into centrifuge tubes and remained frozen for a minimum of 24 h before dissection and tissue collection. During dissection, vitreous humor containing any remaining test article was collected frozen into pre-weighed centrifuge tubes and stored at −80 °C until further processing.

[3] = test system: vascular endothelial growth factor (VEGF) induced blood-retinal barrier breakdown; test: Rabbit pharmacodynamics, VEGF-induced vascular leakage; assay type: in vivo, Dutch Belted rabbits
Procedure: Pharmacodynamics. Rabbit pharmacodynamics studies were performed at Absorption Systems California (San Diego, CA, USA). All studies were conducted in compliance with relevant ethical regulations, including the USDA Animal Welfare Act (i.e., relevant sections of Section 9, Part 1, 2, and 3 of the Code of Federal Regulations) and in compliance with Absorption Systems’ Animal Welfare Assurance filed with the National Institutes of Health. Protocols were reviewed and approved by Absorption Systems’ Institutional Animal Care and Use Committee (IACUC) prior to the initiation of procedures. Treatment of animals was in accordance with conditions specified in the Guide for Care and Use of Laboratory Animals (NRC, 2011, National Academy Press). Animals were anesthetized with intramuscular ketamine hydrochloride (15-20 mg/kg) and xylazine (5 mg/kg) prior to test article injection or vascular leakage induction. The eye area was surgically prepped with 5% betadine and rinsing with balanced salt solution, followed by administration of 1–2 drops of topical proparacaine hydrochloride (0.5%). […] Test articles (27 G × 6 mm, 30 G × 6 mm, and 32 G × 6 mm Dex-TEG-Dex extruded rods, or Ozurdex®) were injected intravitreally in Dutch Belted rabbits (male, 1.84–2.49 kg, 5–6 months) on Day 0 and vascular leakage was induced by an intravitreal injection of VEGF (500 ng/eye) at acute and chronic timepoints (1 week, 2.5, 4.5, 6, 9, 12, and/or 18 months) post-implantation. Post-injection analgesia was provided by 0.02-0.05 mg/kg IM/SC buprenorphine. Negative control rabbits received a sham injection while positive control rabbits received a 2 mg solution dose of triamcinolone acetonide (Kenalog-40). Ophthalmic exams, including fundus microscopy and slit lamp microscopy, were carried out over the 3 days post-VEGF induction and vascular leakage was measured by fluorescein angiography on the third day post-VEGF induction. Eyes were graded based on fundus and fluorescein angiography images using a scoring system as follows[76]: 0 – major vessels straight, some tortuosity of smaller vessels, no vessel dilation; 1 – increased tortuosity of major vessels and/or some vessel dilation; 2 – leakage between major vessels, significant vessel dilation; 3 – leakage between major and minor vessels, minor vessels still visible; and 4 – leakage between major and minor vessels, minor vessels poorly/not visible.

[4] = Shelf-life stability study (polarized light microscopy); assay type: physicochemical; details: extruded amorphous implants
Procedure: Extruded Dex-TEG-Dex implants were assessed for shelf-life stability. Melt extruded Dex-TEG-Dex materials were packaged in the lumen of 30 G needles (BD) and stored in an anhydrous pouch containing desiccant. Samples were aged at 25 °C, 40 °C, and 70 °C for up to 4 months, corresponding to real-time aging of 126 days (25 °C, 4 months), 356 days (40 °C, 4 months), and 2851 days (70 °C, 4 months). At specified time points, samples were removed from their packaging and assessed by polarized light microscopy as outlined below.
Samples were placed on glass slides, cross-sectioned as needed and imaged with a polarizing light microscope (SM-LUX-POL, Leitz) equipped with a Leica EC4 digital camera (Leica) using LAS EZ v.3.2.0 software (Leica). Additionally, a λ-plate compensator was used to assist in evaluation of features with weak birefringence.

[5] = Composition of pellets as made and after release; assay type: physicochemical; details: Supp Fig 5
Procedure: Release studies were carried out using different media, including PBS (pH 7.4, Gibco), 100% FBS (Sigma, F1051), 1% FBS in PBS pH 7.4, and 3.6% BSA (Sigma, A7906) in PBS (pH 7.4, Gibco). Sink conditions were maintained across all of the in vitro release studies through frequent buffer changes, ensuring that the released drug concentration was always at least five times lower than the solubility limit of the drug in the release buffer being used in order to avoid changes in release kinetics caused by drug levels approaching their saturation limit. Samples were incubated in release medium at 37 °C under constant agitation on an orbital shaker at 115 rpm (VWR). At designated timepoints, sampling was performed by complete removal of medium and replenishment with fresh buffer. Sampling timepoints included 24 h and then every 3–4 days thereafter. For PBS release conditions, samples were analyzed directly. For samples with protein (100% FBS, 1% FBS, 3.6% BSA), protein was precipitated by addition of acetonitrile. Samples were vortexed and centrifuged to separate extracted drug from precipitated protein. The supernatant was then analyzed for drug concentration by HPLC.
Supplementary Figure 5 Proportion of dexamethasone in different forms, namely Dex-TEG-Dex, Dex-TEG, and free Dex (Dex – dexamethasone, TEG – triethylene glycol) in heat-molded pellets as-made and […]
the dimer following submersion in release buffer for 14 days. N=4 samples for as made and N=3 samples for 14 days. Data represent the mean ± standard deviation.
(1 picture or pasted object on this page, not shown here)

[6] = pellets after release in 100% FBS, t=14d

C[C@@H]1C[C@H]2[C@@H]3CCC4=CC(=O)C=C[C@]4(C)[C@@]3(F)[C@@H](O)C[C@]2(C)[C@@]1(O)C(=O)COC(=O)OCCOCCOCCOC(=O)OCC(=O)[C@@]1(O)[C@H](C)C[C@H]2[C@@H]3CCC4=CC(=O)C=C[C@]4(C)[C@@]3(F)[C@@H](O)C[C@@]21C [Dex-TEG-Dex]
solubility [1]: 6.7 µg/mL (≈ 6.79 µM) | time at which free Dex fell below limits of detection ([2]; female, New Zealand White): 14 months | levels of dexamethasone in the aqueous humor [2]: below the limit of quantification for most samples | efficacy against VEGF-induced changes ([3]; 1 week, Dex-TEG-Dex as 30 G × 6 mm implant): efficacious | duration of efficacy ([3]; 27 G × 6 mm implant, all time points tested): ≥ 18 months | duration of inhibition of VEGF-induced effects ([3]; 32 G × 6 mm implant): ≥ 4.5 months | efficacy against VEGF-induced changes ([3]; 32 G × 6 mm implant, 6 months): reduced efficacy | duration of efficacy ([3]; Dex-TEG-Dex as 30 G × 6 mm implant, VEGF challenge): 9–12 months | duration of efficacy ([3]; Dex-TEG-Dex as 30 G × 6 mm implant, VEGF challenge, listed as dexamethasone dimer): > 6 months | crystallinity after shelf-life storage [4]: no evidence of crystallinity | Proportion of dexamethasone as Dex-TEG-Dex ([5]; heat-molded pellets as-made, t=0): 99.32 and 99.47 and 99.36 and 99.44 | Proportion of dexamethasone as Dex-TEG [5, 6]: 0.046 and 0.04 | Proportion of dexamethasone as Dex-TEG-Dex [5, 6]: 99.38 and 99.32 and 99.44
